Each structure is given as a SMILES string.

In this experiment the test system is HDAC subtypes 1, 2, 3, and 6. The experiment can be described thus: [11C]martinostat PET imaging of whole rat brain, blocked tracer binding. In kind it is in vivo.

`CCCC(CCC)C(=O)O` [sodium valproate]: the “blockade of [11C]martinostat uptake in whole brain” value (500 mg/kg ip, 30 min prior to tracer) worked out at 16%. In the case of `Nc1cc(F)ccc1NC(=O)/C=C/c1cnn(C/C=C/c2ccccc2)c1` [RGFP966], under “subtype-selective benzamides, ip pretreatment”, the “blockade of [11C]martinostat binding in whole brain” value is listed as 7–10%.

Source of the values: article PMC4198064 (ACS Chemical Neuroscience, 2014).
